Test results reported in ChEMBL document CHEMBL3991601, “The target landscape of clinical kinase drugs” (Science, 2017).
The source made the active and inactive calls. Rule as the data show it, for most assays here: actives have a measured Kd and inactives only a lower limit.

Assays:
[1] = biological target: T1, Serine/threonine-protein kinase LATS1 (Homo sapiens, UniProt O95835)
T1 sequence (O95835 whole entry): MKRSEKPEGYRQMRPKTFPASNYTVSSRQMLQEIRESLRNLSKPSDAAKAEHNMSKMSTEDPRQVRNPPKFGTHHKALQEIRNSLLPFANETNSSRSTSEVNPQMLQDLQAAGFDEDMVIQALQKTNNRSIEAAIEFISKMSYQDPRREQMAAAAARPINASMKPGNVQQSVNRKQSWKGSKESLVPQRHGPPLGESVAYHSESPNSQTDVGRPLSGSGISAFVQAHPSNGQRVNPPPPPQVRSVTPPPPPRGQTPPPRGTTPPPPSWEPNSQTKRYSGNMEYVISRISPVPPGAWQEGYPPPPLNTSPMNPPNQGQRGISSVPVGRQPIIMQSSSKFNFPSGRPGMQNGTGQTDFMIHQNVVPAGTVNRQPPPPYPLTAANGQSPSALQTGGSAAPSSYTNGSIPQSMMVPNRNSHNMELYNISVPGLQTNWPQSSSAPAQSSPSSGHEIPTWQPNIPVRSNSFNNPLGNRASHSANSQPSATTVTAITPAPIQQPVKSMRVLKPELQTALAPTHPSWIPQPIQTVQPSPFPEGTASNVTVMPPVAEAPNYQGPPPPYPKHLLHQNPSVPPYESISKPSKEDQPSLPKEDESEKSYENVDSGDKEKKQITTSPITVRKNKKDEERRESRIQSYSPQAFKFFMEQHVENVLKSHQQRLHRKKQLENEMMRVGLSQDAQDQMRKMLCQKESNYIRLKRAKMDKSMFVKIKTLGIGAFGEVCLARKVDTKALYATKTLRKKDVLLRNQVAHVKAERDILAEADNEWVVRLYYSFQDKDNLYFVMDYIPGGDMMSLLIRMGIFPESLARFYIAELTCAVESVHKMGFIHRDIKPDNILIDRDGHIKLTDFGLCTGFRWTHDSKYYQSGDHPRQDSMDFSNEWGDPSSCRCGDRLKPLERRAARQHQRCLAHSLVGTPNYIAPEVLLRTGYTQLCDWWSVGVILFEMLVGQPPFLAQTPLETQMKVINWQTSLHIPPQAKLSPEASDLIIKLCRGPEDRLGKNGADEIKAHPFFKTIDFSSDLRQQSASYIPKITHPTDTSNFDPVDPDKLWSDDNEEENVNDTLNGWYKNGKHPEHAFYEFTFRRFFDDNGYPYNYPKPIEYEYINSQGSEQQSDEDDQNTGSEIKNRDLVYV

[2] = biological target: T2, Acyl-CoA dehydrogenase family member 11 (Homo sapiens, UniProt Q709F0)
T2 sequence (Q709F0 whole entry): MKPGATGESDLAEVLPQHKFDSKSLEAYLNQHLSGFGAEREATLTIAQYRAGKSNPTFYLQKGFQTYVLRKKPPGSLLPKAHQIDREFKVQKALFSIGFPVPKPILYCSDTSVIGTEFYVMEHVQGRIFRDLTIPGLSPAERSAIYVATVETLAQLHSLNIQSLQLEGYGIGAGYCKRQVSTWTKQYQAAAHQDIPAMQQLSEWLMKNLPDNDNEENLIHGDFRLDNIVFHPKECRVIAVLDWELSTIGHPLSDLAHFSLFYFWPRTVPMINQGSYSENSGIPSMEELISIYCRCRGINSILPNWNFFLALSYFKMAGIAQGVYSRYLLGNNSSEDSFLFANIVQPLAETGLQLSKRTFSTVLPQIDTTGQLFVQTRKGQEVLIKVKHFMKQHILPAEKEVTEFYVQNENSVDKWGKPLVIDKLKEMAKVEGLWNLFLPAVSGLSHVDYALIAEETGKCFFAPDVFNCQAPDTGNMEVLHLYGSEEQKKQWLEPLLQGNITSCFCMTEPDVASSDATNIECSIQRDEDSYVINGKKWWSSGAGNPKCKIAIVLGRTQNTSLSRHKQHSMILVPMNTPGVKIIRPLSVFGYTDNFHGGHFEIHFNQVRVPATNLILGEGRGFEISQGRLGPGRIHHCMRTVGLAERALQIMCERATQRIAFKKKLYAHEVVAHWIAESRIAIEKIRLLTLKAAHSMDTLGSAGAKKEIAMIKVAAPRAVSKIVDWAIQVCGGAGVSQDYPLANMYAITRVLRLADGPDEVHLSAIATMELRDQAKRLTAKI

[3] = biological target: Ribosomal protein S6 kinase alpha-5 (Homo sapiens, UniProt O75582)
Sequence of Ribosomal protein S6 kinase alpha-5 (O75582 whole entry, canonical isoform): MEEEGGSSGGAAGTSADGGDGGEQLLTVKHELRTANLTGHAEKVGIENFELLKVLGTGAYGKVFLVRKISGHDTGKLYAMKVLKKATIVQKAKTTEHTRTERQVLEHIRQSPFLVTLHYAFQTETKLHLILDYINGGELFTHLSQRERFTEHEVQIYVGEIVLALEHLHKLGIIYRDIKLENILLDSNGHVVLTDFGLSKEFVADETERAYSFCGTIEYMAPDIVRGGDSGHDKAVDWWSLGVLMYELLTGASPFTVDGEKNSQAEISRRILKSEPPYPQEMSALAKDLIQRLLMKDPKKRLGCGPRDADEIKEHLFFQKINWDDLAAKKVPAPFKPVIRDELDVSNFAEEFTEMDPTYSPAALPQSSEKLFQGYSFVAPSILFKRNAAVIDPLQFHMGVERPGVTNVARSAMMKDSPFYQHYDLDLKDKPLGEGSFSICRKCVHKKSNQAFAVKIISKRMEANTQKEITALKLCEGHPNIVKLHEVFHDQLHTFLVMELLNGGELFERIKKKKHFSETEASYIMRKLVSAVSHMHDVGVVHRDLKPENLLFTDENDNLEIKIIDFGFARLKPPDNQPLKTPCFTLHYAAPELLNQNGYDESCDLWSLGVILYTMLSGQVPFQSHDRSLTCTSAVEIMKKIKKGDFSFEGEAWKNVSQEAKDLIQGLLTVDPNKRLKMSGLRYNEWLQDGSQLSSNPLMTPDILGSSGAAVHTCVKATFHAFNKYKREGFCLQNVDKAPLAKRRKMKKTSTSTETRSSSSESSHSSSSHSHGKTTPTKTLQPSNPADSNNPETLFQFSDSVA

[4] = biological target: Casein kinase I isoform epsilon (Homo sapiens, UniProt P49674)
Sequence of Casein kinase I isoform epsilon (P49674 whole entry, canonical isoform): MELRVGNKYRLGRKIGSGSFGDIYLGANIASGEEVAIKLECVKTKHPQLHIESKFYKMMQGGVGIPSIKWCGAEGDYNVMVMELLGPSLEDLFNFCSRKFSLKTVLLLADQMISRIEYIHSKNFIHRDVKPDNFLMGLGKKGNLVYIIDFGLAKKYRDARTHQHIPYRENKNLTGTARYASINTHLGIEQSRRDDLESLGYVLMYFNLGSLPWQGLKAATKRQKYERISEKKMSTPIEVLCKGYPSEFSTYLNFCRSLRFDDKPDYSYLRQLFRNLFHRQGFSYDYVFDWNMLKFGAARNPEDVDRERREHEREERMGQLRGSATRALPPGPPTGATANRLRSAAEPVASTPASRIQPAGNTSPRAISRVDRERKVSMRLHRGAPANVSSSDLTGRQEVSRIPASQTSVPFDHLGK

[5] = biological target: T3, Glycogen phosphorylase, liver form (Homo sapiens, UniProt P06737); format: subcellular, K-562, COLO 205, SK-N-BE(2) and MV-4-11, Cell lysate; conditions: read-out: Kd apparent
T3 sequence (P06737 whole entry): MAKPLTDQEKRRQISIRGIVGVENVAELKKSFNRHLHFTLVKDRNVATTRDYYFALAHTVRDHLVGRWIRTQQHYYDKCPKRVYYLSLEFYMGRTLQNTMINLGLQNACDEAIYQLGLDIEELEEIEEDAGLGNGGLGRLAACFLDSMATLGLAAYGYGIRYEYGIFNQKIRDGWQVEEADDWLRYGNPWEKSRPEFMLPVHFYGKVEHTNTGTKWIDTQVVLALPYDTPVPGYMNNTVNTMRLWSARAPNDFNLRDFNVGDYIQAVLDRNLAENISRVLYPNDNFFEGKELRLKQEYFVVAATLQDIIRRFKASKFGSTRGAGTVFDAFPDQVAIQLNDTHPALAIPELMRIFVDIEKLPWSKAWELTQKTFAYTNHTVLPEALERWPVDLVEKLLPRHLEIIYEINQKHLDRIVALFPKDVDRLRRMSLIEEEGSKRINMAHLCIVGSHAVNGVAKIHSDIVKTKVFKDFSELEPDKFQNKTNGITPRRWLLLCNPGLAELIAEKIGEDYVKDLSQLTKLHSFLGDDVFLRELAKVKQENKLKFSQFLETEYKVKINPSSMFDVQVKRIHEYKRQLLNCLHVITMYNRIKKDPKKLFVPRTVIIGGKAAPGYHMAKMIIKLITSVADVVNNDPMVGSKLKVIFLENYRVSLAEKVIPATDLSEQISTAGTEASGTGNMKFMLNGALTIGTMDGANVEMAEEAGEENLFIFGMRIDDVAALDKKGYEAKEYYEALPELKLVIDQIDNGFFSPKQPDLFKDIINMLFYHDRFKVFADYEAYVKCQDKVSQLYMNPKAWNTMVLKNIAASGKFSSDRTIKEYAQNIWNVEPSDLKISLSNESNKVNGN

LIM domain kinase 2 = LIM domain kinase 2 (Homo sapiens, UniProt P53671)
Sequence of LIM domain kinase 2 (P53671 whole entry, the tested form may be a part): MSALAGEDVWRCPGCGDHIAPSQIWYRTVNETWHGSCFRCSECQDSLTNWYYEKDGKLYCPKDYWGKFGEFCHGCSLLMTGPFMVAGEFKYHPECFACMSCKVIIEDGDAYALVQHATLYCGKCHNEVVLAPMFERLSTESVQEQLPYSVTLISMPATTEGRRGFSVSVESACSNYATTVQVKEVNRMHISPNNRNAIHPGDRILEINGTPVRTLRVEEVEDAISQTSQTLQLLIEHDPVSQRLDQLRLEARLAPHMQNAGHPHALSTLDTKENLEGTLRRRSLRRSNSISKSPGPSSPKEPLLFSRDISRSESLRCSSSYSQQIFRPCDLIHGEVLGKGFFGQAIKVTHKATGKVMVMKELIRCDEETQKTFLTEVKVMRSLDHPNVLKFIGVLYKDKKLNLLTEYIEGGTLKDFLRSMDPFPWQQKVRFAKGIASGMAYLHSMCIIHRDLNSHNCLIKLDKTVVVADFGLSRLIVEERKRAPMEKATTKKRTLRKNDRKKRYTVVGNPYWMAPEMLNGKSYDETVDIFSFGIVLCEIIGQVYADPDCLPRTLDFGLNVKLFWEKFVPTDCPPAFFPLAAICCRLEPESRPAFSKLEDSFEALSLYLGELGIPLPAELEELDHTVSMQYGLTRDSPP
Also: in the data inactive means no Kd found up to 30 µM.

SMILES	Kd [1]	Kd [2]	Kd [3]	Kd [4]	Kd [5]	Kd (LIM domain kinase 2)
CO[C@H]1C[C@@H]2CC[C@@H](C)[C@@](O)(O2)C(=O)C(=O)N2CCCC[C@H]2C(=O)O[C@H]([C@H](C)C[C@@H]2CC[C@@H](OP(C)(C)=O)[C@H](OC)C2)CC(=O)[C@H](C)/C=C(\C)[C@@H](O)[C@@H](OC)C(=O)[C@H](C)C[C@H](C)/C=C/C=C/C=C/1C [RIDAFOROLIMUS]	> 30 µM (inactive)	> 30 µM (inactive)	> 30 µM (inactive)	> 30 µM (inactive)	> 30 µM (inactive)	> 30 µM (inactive)
COCC(=O)NC/C=C/c1ccc2ncnc(Nc3ccc(Oc4ccc(C)nc4)c(C)c3)c2c1 [CP-724714]	> 30 µM (inactive)	> 30 µM (inactive)	> 30 µM (inactive)	> 30 µM (inactive)	> 30 µM (inactive)	> 30 µM (inactive)
Cc1nc(NC(=O)N2CCC[C@H]2C(N)=O)sc1-c1ccnc(C(C)(C)C(F)(F)F)c1 [ALPELISIB]	> 30 µM (inactive)	> 30 µM (inactive)	> 30 µM (inactive)	> 30 µM (inactive)	> 30 µM (inactive)	> 30 µM (inactive)
COc1ncc(-c2ccc3nccc(-c4ccnnc4)c3c2)cc1NS(=O)(=O)c1ccc(F)cc1F [OMIPALISIB]	> 30 µM (inactive)	> 30 µM (inactive)	> 30 µM (inactive)	> 30 µM (inactive)	> 30 µM (inactive)	> 30 µM (inactive)
C[C@H]1CNCCCN1S(=O)(=O)c1cccc2cncc(F)c12	> 30 µM (inactive)	> 30 µM (inactive)	> 30 µM (inactive)	> 30 µM (inactive)	> 30 µM (inactive)	> 30 µM (inactive)
Cc1cnc(NC(=O)Nc2cc(Br)c(C)cc2OC[C@@H]2CNCCO2)cn1 [RABUSERTIB]	> 30 µM (inactive)	> 30 µM (inactive)	> 30 µM (inactive)	> 30 µM (inactive)	> 30 µM (inactive)	> 30 µM (inactive)
Cc1cccc(-c2nn3c(c2-c2ccnc4ccc(C(N)=O)cc24)CCC3)n1 [GALUNISERTIB]	> 30 µM (inactive)	> 30 µM (inactive)	> 30 µM (inactive)	7.9 µM (active)	> 30 µM (inactive)	> 30 µM (inactive)
O=C(Nc1nc2cccc(-c3ccc(CN4CCS(=O)(=O)CC4)cc3)n2n1)C1CC1 [FILGOTINIB]	> 30 µM (inactive)	> 30 µM (inactive)	> 30 µM (inactive)	> 30 µM (inactive)	> 30 µM (inactive)	> 30 µM (inactive)
Cc1nc(Nc2n[nH]c3c2CN(C(=O)N[C@H](CN(C)C)c2ccccc2)C3(C)C)c2sccc2n1 [PF-03758309]	0.157 µM (active)	> 30 µM (inactive)	30 µM (active)	> 30 µM (inactive)	> 30 µM (inactive)	> 30 µM (inactive)
Cc1csc(-c2nnc(Nc3ccc(Oc4ncccc4-c4ccnc(N)n4)cc3)c3ccccc23)c1 [AMG-900]	> 30 µM (inactive)	> 30 µM (inactive)	2.15 µM (active)	> 30 µM (inactive)	> 30 µM (inactive)	> 30 µM (inactive)
COCc1c(-c2ccc(NC(=O)Nc3cc(C(F)(F)F)ccc3F)c(F)c2)c2c(N)ncnn2c1CN1CCOCC1	> 30 µM (inactive)	> 30 µM (inactive)	> 30 µM (inactive)	> 30 µM (inactive)	> 30 µM (inactive)	> 30 µM (inactive)
CN1CCN(CCOc2cc(OC3CCOCC3)c3c(Nc4c(Cl)ccc5c4OCO5)ncnc3c2)CC1 [SARACATINIB]	> 30 µM (inactive)	> 30 µM (inactive)	> 30 µM (inactive)	> 30 µM (inactive)	> 30 µM (inactive)	> 30 µM (inactive)
C=CC(=O)N1CCC[C@H](n2c(=O)n(-c3ccc(Oc4ccccc4)cc3)c3c(N)ncnc32)C1	> 30 µM (inactive)	> 30 µM (inactive)	> 30 µM (inactive)	> 30 µM (inactive)	> 30 µM (inactive)	> 30 µM (inactive)
COc1ccc(S(=O)(=O)N(C(C)=O)c2ccccc2/C=C/c2cc[n+]([O-])cc2)cc1 [HMN-214]	> 30 µM (inactive)	> 30 µM (inactive)	> 30 µM (inactive)	> 30 µM (inactive)	> 30 µM (inactive)	> 30 µM (inactive)
COc1cc2c(Nc3ccc(Cl)c(Cl)c3F)ncnc2cc1OC[C@@H]1C[C@@H]2CN(C)C[C@@H]2C1 [TESEVATINIB]	> 30 µM (inactive)	> 30 µM (inactive)	> 30 µM (inactive)	1.02 µM	> 30 µM (inactive)	> 30 µM (inactive)
CO[C@H]1C[C@@H]2CC[C@@H](C)[C@@](O)(O2)C(=O)C(=O)N2CCCC[C@H]2C(=O)O[C@H]([C@H](C)C[C@@H]2CC[C@@H](OC(=O)C(C)(CO)CO)[C@H](OC)C2)CC(=O)[C@H](C)/C=C(\C)[C@@H](O)[C@@H](OC)C(=O)[C@H](C)C[C@H](C)/C=C/C=C/C=C/1C [TEMSIROLIMUS]	> 30 µM (inactive)	> 30 µM (inactive)	> 30 µM (inactive)	> 30 µM (inactive)	> 30 µM (inactive)	> 30 µM (inactive)
Cn1cnc2c(F)c(Nc3ccc(Br)cc3F)c(C(=O)NOCCO)cc21 [BINIMETINIB]	> 30 µM (inactive)	> 30 µM (inactive)	> 30 µM (inactive)	> 30 µM (inactive)	> 30 µM (inactive)	> 30 µM (inactive)
CCOc1cc2ncc(C#N)c(Nc3ccc(F)c(Cl)c3)c2cc1NC(=O)/C=C/CN(C)C [PELITINIB]	> 30 µM (inactive)	> 30 µM (inactive)	> 30 µM (inactive)	1.48 µM (active)	> 30 µM (inactive)	> 30 µM (inactive)
